Experimental data: patent US20140357688A1, “METHOD FOR INHIBITING EZH2 EXPRESSION IN BREAST CANCER CELLS” (Yung Shin Pharm. Ind. Co., Ltd., priority 2013, published 2014)

Columns and labels:
Type in all cases: cell-based, human
EZH2 mRNA = assay: Quantitative real-time RT-PCR of EZH2 mRNA; settings: 3 μM YC-1, 3 or 6 h; less inhibition than protein levels
Description: Cells were treated with 3 μM YC-1 for 3 or 6 h. Cells were collected for the detection of EZH2 mRNA expression with quantitative real-time RT-PCR described in Materials and Methods.
Total RNA was isolated from MDA-MB-468 cells treated with YC-1 and extracted using TRIzol® Reagent (Invitrogen). cDNA strain was reverse transcribed by oligo dT(15) using M-MLV reverse transcriptase (Invitrogen) according to the manufacturer's instructions. Quantitative real-time RT-PCR analysis was performed by a LightCycler® 480 II RTPCR system (Roche Applied Sciences, Manheim, Germany) using Fast Start DNA Master Plus SYBR Green I kit (Roche Applied Sciences). PCR primers were as follows: human EZH2 (NM_004456.4) 5′-[…]-3′ (Forward), 5′-[…]-3′ (Reverse); human GAPDH (NM_002046.3) 5′-[…]-3′ (Forward); 5′-[…]-3′ (Reverse). The expression level of EZH2 mRNA was normalized against the level of GAPDH mRNA in the same sample.

c-Cbl = assay: Western blot of c-Cbl phosphorylation and expression
Description: (A) c-Cbl knockdown MDA-MB-468 cells were treated with 3 μM YC-1 for 4 h. Cell were harvested for detection of protein expression. (B) Cells were treated with 3 μM YC-1 for indicated time. Cells were collected and c-Cbl phosphorylation was detected. […] (D) Cells were pretreated with MG-132 and followed by 3 μM YC-1 induction for indicated time. Cells were harvested and lysed for immunoprecipitation assay. The association between c-Cbl and EZH2 were determined by western blotting analysis and probed with anti-EZH2 or anti-c-Cbl antibody. Membranes were stripped and reprobed with anti-c-Cbl or anti-EZH2 antibody to check the input. […] Then cells were collected and lysate protein was subjected for the detection of the c-Cbl-EZH2 complexes. Cells were lysed in PBS containing proteinase inhibitor and phosphatase inhibitors and sonication. Protein concentration was measured using the Bio-Rad protein assay kit (Bio-Rad Laboratories, Hercules, Calif., USA). Lysate protein was separated by electrophoresis of SDS-PAGE and transferred to Immobilon P membrane (EMD Millipore). The membranes were incubated with appropriate primary antibodies and horseradish peroxidase-conjugated secondary antibodies (EMD Millipore). The signaling was visualized using Chemiluminescence substrate kit (EMD Millipore) and collected by the Luminesence image analyzer, LAS4000 (Fuji Photo Film Co., Tokyo, Japan). The band intensities were analyzed and quantified by the Multi Gauge software (Fuji Photo Film).

Hs578T = assay: MTT cell viability assay
Description: (§1) Human breast cancer cells, MDA-MB-468, MDA-MB-157, MDA-MB-231, MDA-MB-453, and Hs578T, and immortalized mammary epithelial cell lines, 184A1 and MCF-10A, were obtained from American Type Culture Collection (Manassas, Va., USA). MDA-MB-468, MDA-MB-157, MDA-MB-231, and MDA-MB-453 were cultured in DMEM/F12 medium supplemented with 10% FBS, 100 U/ml penicillin, and 100 μg/ml streptomycin. Hs578T was cultured in RPMI 1640 medium containing 10% FBS, 2 mM L-glutamine, 100 U/ml penicillin, and 100 μg/ml streptomycin. 184A1 and MCF-10A were cultured in DMEM/F12 medium supplemented with 5% horse serum, 0.5 μg/ml hydrocortisone, 10 μg/ml insulin, 20 ng/ml epidermal growth factor, 0.1 μg/ml cholera enterotoxin, 2 mM L-glutamine, 100 U/ml penicillin, and 100 μg/ml streptomycin. All cells were maintained in a humidified incubator containing 5% CO2. For hypoxia treatment, cells were incubated in a chamber flushed with 1% 02, 5% CO2, and 94% N2 at 37° C.
(§2) Cell viability was measured by 3-(4,5-Dimethyl-2-thiazolyl)2,5-diphenyl-2H-tetrazolium bromide (MTT) assay.

MDA-MB-157 = assay: MTT cell viability assay
Description: as §1, §2

MDA-MB-231 = assay: MTT cell viability assay; settings: triple negative breast cancer cell line MDA-MB-231
Description: as §1, §2

MDA-MB-453 = assay: MTT cell viability assay
Description: as §1, §2

Ras = Ras activation (Raf-RBD pull-down); settings: 3 μM YC-1
Description: (A) Cells were pretreated with DMSO (as control), Bay-43-9006 (Bay, 10 μM), farnyesyl thiosalicylic acid (FTS, 10 μM), Src inhibitor I (SrcI, 10 μM), and genistein (Gen, 10 μM), then followed by YC-1 (3 μM) incubation for 6 h. Cells were harvested and lysed for western blot analysis (left, right) and cell viability (middle). The levels of protein expression were quantitated and shown under blots. (B) MDA-MB-468 cells were transfected with shRNA of Raf-1 or Src. After stimulation of 3 μM YC-1 for 4 h, cell protein was subjected to western blot analysis. (C) Cells were incubated with 3 μM YC-1 for indicated time and then lysed for detection of Src, Raf-1, and MEK activation by using specific anti-phosphorylated antibodies. (D) Cells were treated with 3 μM YC-1 for indicated time. Cells were lysed and detected Ras activation by using Raf-RBD conjugated agarose to pull-down Ras-GTP. The total Ras in cell lysate was also detected. […] Cells were lysed and protein expression was determined by western blot analysis. (F) Cells were induced by 3 μM YC-1 in the presence of indicated inhibitors. Cells were lysed and subjected to EZH2 ubiquitination assay.
Ras-GTP has a high affinity with Ras binding domain of Raf-1 (Raf-RBD). Accordingly, GST fusion protein containing Raf-RBD was applied to detect Ras activation. […]

## OCc1ccc(-c2nn(Cc3ccccc3)c3ccccc23)o1 [YC-1, 3-(5′-hydroxymethyl-2′-furyl)-1-benzyl indazole]
EZH2 mRNA
  mRNA expression of EZH2: inhibitory effect
c-Cbl; 3 μM YC-1
  c-Cbl protein expression: inhibited
c-Cbl; 3 μM YC-1, after 1 h
  c-Cbl Tyr731 and Tyr774 phosphorylation: rapid phosphorylation
Hs578T
  effect on cell viability: no effect
MDA-MB-157
  effect on cell viability: no effect
MDA-MB-231
  effect on cell viability: slight inhibitory effect
MDA-MB-453
  effect on cell viability: no effect
Ras
  Ras activation: could not induce Ras activation
